The source of these data is PubChem BioAssay AID248 (DTP/NCI, 2004).

SMILES strings stand for the structures. “And” between values parts separate entries of the source, which are not always exact repeats. Equal values may be shown once. Toxic doses and inconclusive results are not listed.

This test concerns L1210 leukemia ip in BDF1 mice, survival T/C. Briefly: NCI In Vivo Anticancer Drug Screen. Data for tumor model L1210 Leukemia (intraperitoneal) in B6D2F1 (BDF1) mice. The note with it: endpoint: mean survival time, higher = longer survival. The method in brief:
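Mice bearing the transplanted tumor received compound or vehicle. Survival of the treated group was divided by that of the vehicle-treated control group to give the ratio.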

[1] abbreviates: dose: 100.0 mg/kg/injection, schedule: Q01DX001 (ip), vehicle: saline.
[2] abbreviates: dose: 200.0 mg/kg/injection, schedule: Q01DX001 (ip), vehicle: saline.
[3] abbreviates: dose: 400.0 mg/kg/injection, schedule: Q01DX001 (ip), vehicle: saline.
[4] abbreviates: dose: 50.0 mg/kg/injection, schedule: Q01DX009 (ip), vehicle: saline with Tween-80.
Where [5] appears, read: dose: 100.0 mg/kg/injection, schedule: Q01DX009 (ip), vehicle: saline with Tween-80.
Where [6] appears, read: dose: 200.0 mg/kg/injection, schedule: Q01DX009 (ip), vehicle: saline with Tween-80.
[7] abbreviates: dose: 100.0 mg/kg/injection, schedule: Q04DX003 (ip), vehicle: saline with Tween-80.
Setting [8] is: dose: 200.0 mg/kg/injection, schedule: Q04DX003 (ip), vehicle: saline with Tween-80.
Setting [9] is: dose: 400.0 mg/kg/injection, schedule: Q04DX003 (ip), vehicle: saline with Tween-80.

As to `O=C(c1ccccc1)C1C(=O)N(c2ccccc2)C(=O)N1c1ccccc1` (configuration not stated), the T/C was 90 % of control under setting [1], 96 % of control under setting [2] and 96 % of control under setting [3].

In the case of `O=c1ccn(C2CC(O)C(CO)C2)c(=S)[nH]1` (configuration not stated), the T/C was 103 % of control under setting [4], 107 % of control under setting [5] and 93 % of control under setting [6].

In the case of `Cc1nc(SC(=N)N)nc2c1CCO2`, the T/C is 96 % of control under setting [1], 97 % of control under setting [2] and 88 % of control under setting [3].

For `Cn1c(=S)sc2cc(Cl)ccc21`, the T/C is, setting by setting: under setting [7], 104 % of control; under setting [8], 101 % of control; under setting [9], 98 % of control.

`CCCCNC(=O)Nc1ccc(Nc2ccccc2)cc1`: the T/C by setting is: (dose: 100.0 mg/kg/injection, schedule: Q01DX009 (ip), vehicle: gum acacia) 88 % of control; (dose: 100.0 mg/kg/injection, schedule: Q04DX003 (ip), vehicle: gum acacia) 88 % of control; (dose: 200.0 mg/kg/injection, schedule: Q01DX009 (ip), vehicle: gum acacia) 108 % of control; (dose: 200.0 mg/kg/injection, schedule: Q04DX003 (ip), vehicle: gum acacia) 96 % of control; (dose: 400.0 mg/kg/injection, schedule: Q04DX003 (ip), vehicle: gum acacia) 96 % of control.

For the molecule `CCOC(=O)CCCCCC(C(=O)OCC)c1nc2ccccc2[nH]c1=O` (configuration not stated), the T/C is 99 % of control (dose: 100.0 mg/kg/injection, schedule: Q04DX002 (ip), vehicle: Klucel (hydroxypropylcellulose) (HPC)); 101 % of control (dose: 200.0 mg/kg/injection, schedule: Q04DX002 (ip), vehicle: Klucel (hydroxypropylcellulose) (HPC)); 86 % of control (dose: 400.0 mg/kg/injection, schedule: Q04DX002 (ip), vehicle: Klucel (hydroxypropylcellulose) (HPC)).

As to `NCC1OC(OC2C(N)CC(N)C(OC3OC(CO)C(O)C(N)C3O)C2O)C(N)CC1O` (configuration not stated), the T/C by setting is: (dose: 50.0 mg/kg/injection, schedule: Q04DX002 (ip), vehicle: saline) 114 % of control; (dose: 100.0 mg/kg/injection, schedule: Q04DX002 (ip), vehicle: saline) 103 % of control; (dose: 200.0 mg/kg/injection, schedule: Q04DX002 (ip), vehicle: saline) 114 % of control.

As for `CCOC(=O)C(N)Cc1ccc(N(CCCl)CCCl)cc1` (configuration not stated), the T/C is, setting by setting: (dose: 0.06 mg/kg/injection, schedule: Q01DX Z (ip), vehicle: saline) 99 % of control; (dose: 0.13 mg/kg/injection, schedule: Q01DX Z (ip), vehicle: saline) 124 % of control; (dose: 0.5 mg/kg/injection, schedule: Q01DX Z (oral), vehicle: saline) 120 % of control; (dose: 2.0 mg/kg/injection, schedule: Q01DX Z (ip), vehicle: saline) 122 % of control; (dose: 4.0 mg/kg/injection, schedule: Q01DX Z (ip), vehicle: saline) 161 % of control and 190 % of control; (dose: 4.0 mg/kg/injection, schedule: Q01DX Z (oral), vehicle: saline) 162 % of control and 168 % of control. Also, the T/C (dose: 6.0 mg/kg/injection, schedule: Q01DX Z (ip), vehicle: saline) was 160 % of control and 164 % of control and 202 % of control; the T/C (dose: 9.0 mg/kg/injection, schedule: Q01DX Z (ip), vehicle: saline) was 162 % of control and 164 % of control and 172 % of control; the T/C (dose: 13.5 mg/kg/injection, schedule: Q01DX Z (ip), vehicle: saline) was 165 % of control; the T/C (dose: 16.0 mg/kg/injection, schedule: Q01DX Z (oral), vehicle: saline) is 87 % of control and 88 % of control; the T/C (dose: 20.0 mg/kg/injection, schedule: Q01DX Z (ip), vehicle: saline) is 97 % of control.

`COc1ccc2c(c1)CCC1=C2CCC(C)(C(=O)O)N1` (configuration not stated): the T/C by setting is: under setting [5], 98 % of control; under setting [6], 95 % of control; (dose: 400.0 mg/kg/injection, schedule: Q01DX009 (ip), vehicle: saline with Tween-80) 87 % of control.

As for `CCC[Si](C)(C)CCC`, the T/C is, setting by setting: under setting [1], 100 % of control; under setting [2], 98 % of control; under setting [3], 100 % of control.

Turning to `CCOC(=O)c1ncc2cnccn12`, the T/C (dose: 50.0 mg/kg/injection, schedule: Q01DX009 (ip), vehicle: saline) was 92 % of control; the T/C (dose: 100.0 mg/kg/injection, schedule: Q01DX009 (ip), vehicle: saline) is 120 % of control; the T/C (dose: 100.0 mg/kg/injection, schedule: Q04DX003 (ip), vehicle: saline) is 107 % of control; the T/C (dose: 200.0 mg/kg/injection, schedule: Q01DX009 (ip), vehicle: saline) is 94 % of control; the T/C (dose: 200.0 mg/kg/injection, schedule: Q04DX003 (ip), vehicle: saline) was 104 % of control.

For the molecule `CCCCCCCNC(C)(C)C(SS)c1ccc(Cl)cc1` (configuration not stated), the T/C (dose: 100.0 mg/kg/injection, schedule: Q01DX009 (sc), vehicle: olive oil, sesame oil, peanut oil) is 102 % of control; the T/C (dose: 200.0 mg/kg/injection, schedule: Q01DX009 (sc), vehicle: olive oil, sesame oil, peanut oil) is 100 % of control; the T/C (dose: 400.0 mg/kg/injection, schedule: Q01DX009 (sc), vehicle: olive oil, sesame oil, peanut oil) was 101 % of control.

Take `Nc1[nH]c(=S)nc2c1ncn2C1CCCC1`: the T/C was 93 % of control (dose: 100.0 mg/kg/injection, schedule: Q01DX001 (ip), vehicle: other) and 93 % of control (dose: 200.0 mg/kg/injection, schedule: Q01DX001 (ip), vehicle: other).

For the molecule `O=C(/C(=N/O)c1ccc(Cl)cc1)c1ccccc1`, the T/C by setting is: (dose: 50.0 mg/kg/injection, schedule: Q01DX009 (ip), vehicle: Klucel (hydroxypropylcellulose) (HPC)) 89 % of control; (dose: 75.0 mg/kg/injection, schedule: Q01DX001 (ip), vehicle: Klucel (hydroxypropylcellulose) (HPC)) 89 % of control; (dose: 100.0 mg/kg/injection, schedule: Q01DX009 (ip), vehicle: Klucel (hydroxypropylcellulose) (HPC)) 96 % of control; (dose: 150.0 mg/kg/injection, schedule: Q01DX001 (ip), vehicle: Klucel (hydroxypropylcellulose) (HPC)) 100 % of control; (dose: 200.0 mg/kg/injection, schedule: Q01DX009 (ip), vehicle: Klucel (hydroxypropylcellulose) (HPC)) 107 % of control; (dose: 300.0 mg/kg/injection, schedule: Q01DX001 (ip), vehicle: Klucel (hydroxypropylcellulose) (HPC)) 98 % of control.

On to `CCCCCCCCCCCCCCCC(O)S(=O)(=O)O` (configuration not stated), for which the T/C was 92 % of control under setting [7] and 97 % of control under setting [8].

With `FC(F)C(F)(F)C(F)(F)C(F)(F)C(F)(F)C(F)(F)COc1nc(OCC(F)(F)C(F)(F)C(F)(F)C(F)(F)C(F)(F)C(F)F)nc(OCC(F)(F)C(F)(F)C(F)(F)C(F)(F)C(F)(F)C(F)F)n1`, the T/C runs as follows: (dose: 25.6 mg/kg/injection, schedule: Q04DX002 (ip), vehicle: saline with Tween-80) 97 % of control; under setting [4], 89 % of control; (dose: 64.0 mg/kg/injection, schedule: Q04DX002 (ip), vehicle: saline with Tween-80) 91 % of control; under setting [5], 92 % of control; under setting [7], 91 % of control; (dose: 160.0 mg/kg/injection, schedule: Q04DX002 (ip), vehicle: saline with Tween-80) 97 % of control. Besides, the T/C was 90 % of control under setting [6]; 86 % of control under setting [8]; 91 % of control (dose: 400.0 mg/kg/injection, schedule: Q04DX002 (ip), vehicle: saline with Tween-80); 87 % of control under setting [9].

As for `C1CNC2CCCC2C1` (configuration not stated), the T/C (dose: 75.0 mg/kg/injection, schedule: Q01DX001 (ip), vehicle: carboxymethylcellulose (CMC)) is 103 % of control.

For `COc1ccc2c(c1)C(=O)c1ccccc1-2`, the T/C runs as follows: under setting [7], 101 % of control; under setting [8], 98 % of control; under setting [9], 109 % of control.

In the case of `COc1cc(OC)c(OC)cc1C=NC1CCCCCCC1`, the T/C was 91 % of control under setting [4], 102 % of control under setting [5] and 102 % of control under setting [6].

With `C=CC(=O)[O][Pb]([CH2]C)([CH2]C)[CH2]C`, the T/C (dose: 12.5 mg/kg/injection, schedule: Q04DX002 (ip), vehicle: Klucel (hydroxypropylcellulose) (HPC)) is 86 % of control.

Turning to `COC1=C(Br)C(=O)C(OC)=C(Br)C1=O`, the T/C was 95 % of control (dose: 25.0 mg/kg/injection, schedule: Q04DX003 (ip), vehicle: saline with Tween-80); 92 % of control (dose: 50.0 mg/kg/injection, schedule: Q04DX003 (ip), vehicle: saline with Tween-80); 91 % of control under setting [7].

As to `Nc1cccc2c1ccc1ccc3ccccc3c12`, the T/C reads like this: (dose: 100.0 mg/kg/injection, schedule: Q01DX001 (ip), vehicle: Klucel (hydroxypropylcellulose) (HPC)) 103 % of control; (dose: 200.0 mg/kg/injection, schedule: Q01DX001 (ip), vehicle: Klucel (hydroxypropylcellulose) (HPC)) 101 % of control; (dose: 400.0 mg/kg/injection, schedule: Q01DX001 (ip), vehicle: Klucel (hydroxypropylcellulose) (HPC)) 108 % of control.
